Measured values taken from the kinase profiling compilation of Christmann-Franck et al. (2016).

How the values were obtained:
Assay in all cases: radiometric filter-binding kinase assay, Kinaseprofiler
[1] = system: MARK1 (human), Q9P0L2 [V16E/T20S]; conditions: ATP 10 µM
[2] = system: RAF1 (human), P04049 [Y340D/Y341D]; conditions: ATP 45 µM
[3] = system: MERTK (human), Q12866 [H628Q/R794A]; conditions: ATP 45 µM
[4] = system: AKT2 (human), P31751 [S474D]; conditions: ATP 200 µM
[5] = system: TEC (human), P42680 [F514V]; conditions: ATP 120 µM
Chain of TEC (human), P42680 [F514V] (P42680 whole entry, looked up, stated change not applied): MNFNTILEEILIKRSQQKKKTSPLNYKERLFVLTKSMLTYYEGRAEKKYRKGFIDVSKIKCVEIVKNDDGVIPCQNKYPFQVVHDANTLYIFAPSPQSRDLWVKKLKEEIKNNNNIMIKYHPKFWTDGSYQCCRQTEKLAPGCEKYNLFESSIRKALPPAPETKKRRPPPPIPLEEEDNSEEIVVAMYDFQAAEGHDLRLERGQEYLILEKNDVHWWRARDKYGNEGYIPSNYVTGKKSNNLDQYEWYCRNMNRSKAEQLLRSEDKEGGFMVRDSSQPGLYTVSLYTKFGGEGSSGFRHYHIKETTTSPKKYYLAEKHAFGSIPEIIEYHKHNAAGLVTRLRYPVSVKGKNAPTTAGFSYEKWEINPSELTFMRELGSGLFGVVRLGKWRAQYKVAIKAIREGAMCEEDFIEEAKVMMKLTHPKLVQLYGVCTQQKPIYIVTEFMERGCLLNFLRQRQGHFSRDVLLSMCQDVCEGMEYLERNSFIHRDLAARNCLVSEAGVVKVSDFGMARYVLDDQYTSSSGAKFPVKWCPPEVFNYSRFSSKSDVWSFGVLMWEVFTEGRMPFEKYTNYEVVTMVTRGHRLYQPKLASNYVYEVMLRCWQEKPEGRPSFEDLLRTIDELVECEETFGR

[6] = system: MAPKAPK2 (human), P49137 [A399G]; conditions: ATP 90 µM
Chain of MAPKAPK2 (human), P49137 [A399G] (P49137 whole entry A399G, looked up): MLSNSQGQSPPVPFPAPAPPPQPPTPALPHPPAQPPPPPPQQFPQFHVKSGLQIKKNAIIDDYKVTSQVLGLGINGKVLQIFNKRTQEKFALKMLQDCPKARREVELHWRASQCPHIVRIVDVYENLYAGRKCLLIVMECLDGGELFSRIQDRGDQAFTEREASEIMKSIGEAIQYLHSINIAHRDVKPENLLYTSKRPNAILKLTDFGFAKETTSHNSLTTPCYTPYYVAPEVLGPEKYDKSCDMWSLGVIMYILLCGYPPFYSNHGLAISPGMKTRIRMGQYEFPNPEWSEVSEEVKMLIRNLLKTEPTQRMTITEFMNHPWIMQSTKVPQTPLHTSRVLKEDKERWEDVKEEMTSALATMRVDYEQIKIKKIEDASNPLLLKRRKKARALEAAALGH

[7] = system: AURKA (human), O14965 [I31F]; conditions: ATP 15 µM
Chain of AURKA (human), O14965 [I31F] (O14965 whole entry, looked up, stated change not applied): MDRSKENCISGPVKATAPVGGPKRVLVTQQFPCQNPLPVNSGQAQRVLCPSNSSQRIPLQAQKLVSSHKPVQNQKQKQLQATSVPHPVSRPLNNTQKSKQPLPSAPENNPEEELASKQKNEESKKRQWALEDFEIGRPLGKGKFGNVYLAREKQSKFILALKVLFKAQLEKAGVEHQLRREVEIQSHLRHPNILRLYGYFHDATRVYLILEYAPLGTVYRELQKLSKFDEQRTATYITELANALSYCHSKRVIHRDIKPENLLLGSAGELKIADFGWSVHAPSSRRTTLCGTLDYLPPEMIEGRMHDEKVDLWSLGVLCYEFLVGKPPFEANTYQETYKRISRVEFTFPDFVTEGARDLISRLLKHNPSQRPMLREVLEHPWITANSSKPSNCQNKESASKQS

[8] = system: PRKCH (human), P24723 [V108L/G109R/L392Q]; conditions: ATP 45 µM
Chain of PRKCH (human), P24723 [V108L/G109R/L392Q] (P24723 whole entry, looked up, stated change not applied): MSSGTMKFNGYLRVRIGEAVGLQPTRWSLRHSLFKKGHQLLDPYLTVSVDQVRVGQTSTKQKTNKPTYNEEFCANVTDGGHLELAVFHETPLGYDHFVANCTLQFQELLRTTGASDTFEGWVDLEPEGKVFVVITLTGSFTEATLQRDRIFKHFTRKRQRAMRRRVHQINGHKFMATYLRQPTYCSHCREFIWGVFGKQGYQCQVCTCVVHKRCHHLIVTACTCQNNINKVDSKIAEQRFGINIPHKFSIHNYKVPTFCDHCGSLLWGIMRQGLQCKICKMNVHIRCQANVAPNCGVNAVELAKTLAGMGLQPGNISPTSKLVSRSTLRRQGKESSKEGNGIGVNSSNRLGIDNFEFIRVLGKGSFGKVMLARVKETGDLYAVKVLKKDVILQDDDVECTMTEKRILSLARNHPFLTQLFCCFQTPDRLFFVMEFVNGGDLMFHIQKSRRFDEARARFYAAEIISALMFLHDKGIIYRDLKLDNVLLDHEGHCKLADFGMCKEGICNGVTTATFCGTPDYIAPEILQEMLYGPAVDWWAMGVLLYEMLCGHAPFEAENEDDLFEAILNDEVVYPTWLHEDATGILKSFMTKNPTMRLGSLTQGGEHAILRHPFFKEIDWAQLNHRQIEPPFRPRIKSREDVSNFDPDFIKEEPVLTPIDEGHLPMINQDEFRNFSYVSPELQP

Chain of MERTK (human), Q12866 [H628Q/R794A] (Q12866 whole entry, looked up, stated change not applied): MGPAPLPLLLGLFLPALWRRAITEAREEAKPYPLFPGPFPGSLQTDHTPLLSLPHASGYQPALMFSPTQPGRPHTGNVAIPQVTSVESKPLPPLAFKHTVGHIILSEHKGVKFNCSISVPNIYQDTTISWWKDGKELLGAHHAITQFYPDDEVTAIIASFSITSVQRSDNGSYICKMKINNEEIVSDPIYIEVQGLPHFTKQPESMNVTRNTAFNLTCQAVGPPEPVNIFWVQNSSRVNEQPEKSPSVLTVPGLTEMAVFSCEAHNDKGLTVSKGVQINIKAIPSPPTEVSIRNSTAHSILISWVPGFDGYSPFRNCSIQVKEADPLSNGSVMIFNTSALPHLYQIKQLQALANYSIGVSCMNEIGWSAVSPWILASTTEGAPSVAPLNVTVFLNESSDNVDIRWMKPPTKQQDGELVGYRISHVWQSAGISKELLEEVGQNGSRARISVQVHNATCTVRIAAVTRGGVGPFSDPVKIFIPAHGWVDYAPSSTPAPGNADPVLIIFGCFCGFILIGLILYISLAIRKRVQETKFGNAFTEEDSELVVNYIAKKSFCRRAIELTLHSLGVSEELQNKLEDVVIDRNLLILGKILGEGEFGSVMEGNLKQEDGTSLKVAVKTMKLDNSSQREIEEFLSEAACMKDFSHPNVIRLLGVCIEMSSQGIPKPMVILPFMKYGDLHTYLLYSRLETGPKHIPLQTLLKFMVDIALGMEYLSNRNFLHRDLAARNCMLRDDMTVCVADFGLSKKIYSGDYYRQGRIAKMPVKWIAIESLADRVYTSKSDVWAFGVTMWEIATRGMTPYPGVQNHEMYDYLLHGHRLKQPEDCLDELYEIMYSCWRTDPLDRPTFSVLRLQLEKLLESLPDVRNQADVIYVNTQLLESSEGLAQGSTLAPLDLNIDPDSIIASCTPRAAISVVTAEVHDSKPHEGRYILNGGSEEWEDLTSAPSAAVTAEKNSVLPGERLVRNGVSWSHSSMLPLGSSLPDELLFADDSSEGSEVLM
Chain of MARK1 (human), Q9P0L2 [V16E/T20S] (Q9P0L2 whole entry, looked up, stated change not applied): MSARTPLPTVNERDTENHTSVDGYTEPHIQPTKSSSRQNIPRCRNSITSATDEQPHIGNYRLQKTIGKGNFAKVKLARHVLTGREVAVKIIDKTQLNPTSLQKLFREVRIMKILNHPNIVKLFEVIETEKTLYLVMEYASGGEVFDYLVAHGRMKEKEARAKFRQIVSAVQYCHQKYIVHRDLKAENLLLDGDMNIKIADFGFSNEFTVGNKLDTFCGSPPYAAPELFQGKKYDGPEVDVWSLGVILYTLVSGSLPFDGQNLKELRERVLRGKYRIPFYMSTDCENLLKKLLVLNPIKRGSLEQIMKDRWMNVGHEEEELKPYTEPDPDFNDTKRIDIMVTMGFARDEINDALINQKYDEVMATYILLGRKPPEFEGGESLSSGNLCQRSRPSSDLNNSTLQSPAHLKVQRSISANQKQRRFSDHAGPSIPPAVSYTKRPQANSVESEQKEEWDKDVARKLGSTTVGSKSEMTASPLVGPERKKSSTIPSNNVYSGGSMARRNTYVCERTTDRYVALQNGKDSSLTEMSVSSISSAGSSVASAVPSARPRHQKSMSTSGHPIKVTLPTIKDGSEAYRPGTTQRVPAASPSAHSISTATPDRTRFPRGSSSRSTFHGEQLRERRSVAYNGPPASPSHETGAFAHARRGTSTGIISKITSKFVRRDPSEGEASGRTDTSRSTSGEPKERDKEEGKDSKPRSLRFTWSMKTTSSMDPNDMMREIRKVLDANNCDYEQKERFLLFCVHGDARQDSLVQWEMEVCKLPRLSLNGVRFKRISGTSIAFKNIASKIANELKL
Chain of AKT2 (human), P31751 [S474D] (P31751 whole entry S474D, looked up): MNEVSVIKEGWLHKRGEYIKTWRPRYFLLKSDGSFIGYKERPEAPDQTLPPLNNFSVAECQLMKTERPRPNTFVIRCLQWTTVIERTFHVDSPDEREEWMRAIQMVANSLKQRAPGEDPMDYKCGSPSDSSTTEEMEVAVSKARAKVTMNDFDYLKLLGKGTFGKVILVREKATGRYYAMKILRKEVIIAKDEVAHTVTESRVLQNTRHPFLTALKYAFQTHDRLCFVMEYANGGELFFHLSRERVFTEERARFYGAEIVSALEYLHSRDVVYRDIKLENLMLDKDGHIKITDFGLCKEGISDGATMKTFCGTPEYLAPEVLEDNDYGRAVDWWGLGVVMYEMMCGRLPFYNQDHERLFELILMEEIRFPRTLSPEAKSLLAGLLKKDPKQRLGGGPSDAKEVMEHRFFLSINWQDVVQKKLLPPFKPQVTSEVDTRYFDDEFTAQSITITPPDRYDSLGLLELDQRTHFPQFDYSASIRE

residual activity ([2]; compound 10.0 µM) [%]	residual activity ([4]; compound 1.0 µM) [%]	residual activity ([4]; compound 10.0 µM) [%]	residual activity ([5]; compound 1.0 µM) [%]	residual activity ([5]; compound 10.0 µM) [%]	residual activity ([6]; compound 1.0 µM) [%]	residual activity ([6]; compound 10.0 µM) [%]	residual activity ([7]; compound 1.0 µM) [%]	residual activity ([7]; compound 10.0 µM) [%]	residual activity ([1]; compound 10.0 µM) [%]	residual activity ([2]; compound 1.0 µM) [%]	residual activity ([8]; compound 1.0 µM) [%]	residual activity ([8]; compound 10.0 µM) [%]	residual activity ([3]; compound 1.0 µM) [%]	SMILES	residual activity ([1]; compound 1.0 µM) [%]	residual activity ([3]; compound 10.0 µM) [%]
66	98	92	64	22	101	76	7	0	5	89	91	83	-2	O=C1Nc2ccccc2/C1=C1\Nc2ccccc2\C1=N/O	37	-3
61	104	105	89	57	79	69	19	2	6	69	86	82	22	O=C1c2ccccc2-c2n[nH]c3cccc1c23	38	9

SMILES	residual activity ([2]; compound 10.0 µM) [%]	residual activity ([4]; compound 1.0 µM) [%]	residual activity ([4]; compound 10.0 µM) [%]	residual activity ([5]; compound 1.0 µM) [%]	residual activity ([5]; compound 10.0 µM) [%]	residual activity ([6]; compound 1.0 µM) [%]	residual activity ([6]; compound 10.0 µM) [%]	residual activity ([7]; compound 1.0 µM) [%]	residual activity ([7]; compound 10.0 µM) [%]	residual activity ([1]; compound 10.0 µM) [%]	residual activity ([2]; compound 1.0 µM) [%]	residual activity ([8]; compound 1.0 µM) [%]	residual activity ([8]; compound 10.0 µM) [%]	residual activity ([3]; compound 1.0 µM) [%]	residual activity ([1]; compound 1.0 µM) [%]	residual activity ([3]; compound 10.0 µM) [%]
CN[C@@H]1C[C@H]2O[C@@](C)([C@@H]1OC)n1c3ccccc3c3c4c(c5c6ccccc6n2c5c31)C(=O)NC4	80														0	0
COC(=O)[C@]1(O)C[C@@H]2O[C@@]1(C)n1c3ccccc3c3c4c(c5c6ccccc6n2c5c31)C(=O)NC4						0	-6		-1	0					0	0
